# According to patent US9012448B2, “1,2,4-triazolo[4,3-a]pyridine derivatives and their use as positive allosteric modulators of MGLUR2 receptors” (Janssen Pharmaceuticals, Inc., priority 2010, dated 2015):
# What was measured:
# human mGluR2 receptor = target: T1, human mGluR2 receptor (Homo sapiens, UniProt Q14416); test: [35S]GTPγS binding assay, hmGluR2 PAM (membranes from transfected CHO cells, glutamate at EC20); assay type: biochemical; conditions: for EC50: in presence of mGluR2 agonist glutamate at a predetermined EC20 concentration, pEC50 = -log EC50 (M), at least 8 concentrations; for Emax / GTPγS - hmGluR2 PAM Emax: relative maximal effect (maximal % effect relative to the control glutamate response), glutamate at EC20
# T1 construct: expressed in transfected cells; host or cells: CHO cells (membrane preparation)
# Source text: The compounds provided in the present invention are positive allosteric modulators of mGluR2. These compounds appear to potentiate glutamate responses by binding to an allosteric site other than the glutamate binding site. The response of mGluR2 to a concentration of glutamate is increased when compounds of Formula (I) are present. Compounds of Formula (I) are expected to have their effect substantially at mGluR2 by virtue of their ability to enhance the function of the receptor. The effects of positive allosteric modulators tested at mGluR2 using the [^35S]GTPγS binding assay method described below and which is suitable for the identification of such compounds, and more particularly the compounds according to Formula (I), are shown in Table 3.
# The [^35S]GTPγS binding assay is a functional membrane-based assay used to study G-protein coupled receptor (GPCR) function whereby incorporation of a non-hydrolysable form of GTP, [^35S]GTPγS (guanosine 5′-triphosphate, labelled with […] ^35S), is measured. The G-protein a subunit catalyzes the exchange of guanosine 5′-diphosphate (GDP) by guanosine triphosphate (GTP) and on activation of the GPCR by an agonist, [^35S]GTPγS, becomes incorporated and cannot be cleaved to continue the exchange cycle (Harper (1998) Current Protocols in Pharmacology 2.6.1-10, John Wiley & Sons, Inc.). […] Here we describe the use of the [^35S]GTPγS binding assay using membranes from cells transfected with the human mGluR2 receptor and adapted from Schaffhauser et al. ((2003) Molecular Pharmacology 4:798-810) for the detection of the positive allosteric modulation (PAM) properties of the compounds of this invention.
# CHO-cells were cultured to pre-confluence and stimulated with 5 mM butyrate for 24 h. Cells were then collected by scraping in PBS and cell suspension was centrifuged (10 min at 4000 RPM in benchtop centrifuge). Supernatant was discarded and pellet gently resuspended in 50 mM Tris-HCl, pH 7.4 by mixing with a vortex and pipetting up and down. The suspension was centrifuged at 16,000 RPM (Sorvall RC-5C plus rotor SS-34) for 10 minutes and the supernatant discarded. The pellet was homogenized in 5 mM Tris-HCl, pH 7.4 using an ultra-turrax homogenizer and centrifuged again (18,000 RPM, 20 min, 4° C.). The final pellet was resuspended in 50 mM Tris-HCl, pH 7.4 and stored at −80° C. in appropriate aliquots before use. Protein concentration was determined by the Bradford method (Bio-Rad, USA) with bovine serum albumin as standard.
# Measurement of mGluR2 positive allosteric modulatory activity of test compounds was performed as follows. Test compounds and glutamate were diluted in assay buffer containing 10 mM HEPES acid, 10 mM HEPES salt, pH 7.4, 100 mM NaCl, 3 mM MgCl2 and 10 μM GDP. Human mGlu2 receptor-containing membranes were thawed on ice and diluted in assay buffer supplemented with 14 μg/ml saponin. Membranes were pre-incubated with compound alone or together with a predefined (˜EC20) concentration of glutamate (PAM assay) for 30 min at 30° C. After addition of [^35S]GTPγS (f.c. 0.1 nM), assay mixtures were shaken briefly and further incubated to allow [^35S]GTPγS incorporation on activation (30 minutes, 30° C.). Final assay mixtures contained 7 μg of membrane protein in 10 mM HEPES acid, 10 mM HEPES salt, pH 7.4, 100 mM NaCl, 3 mM MgCl2, 10 μM GDP and 10 μg/ml saponin. Total reaction volume was 200 μl. Reactions were terminated by rapid filtration through Unifilter-96 GF/B plates (Perkin Elmer, Massachusetts, USA) using a 96-well filtermate universal harvester. Filters were washed 6 times with ice-cold 10 mM NaH2PO4/10 mM Na2HPO4, pH 7.4. Filters were then air-dried, and 40 μl of liquid scintillation cocktail (Microscint-O) was added to each well. Membrane-bound radioactivity was counted in a Microplate Scintillation and Luminescence Counter from Perkin Elmer. […]
# T1 sequence (Q14416 19-872): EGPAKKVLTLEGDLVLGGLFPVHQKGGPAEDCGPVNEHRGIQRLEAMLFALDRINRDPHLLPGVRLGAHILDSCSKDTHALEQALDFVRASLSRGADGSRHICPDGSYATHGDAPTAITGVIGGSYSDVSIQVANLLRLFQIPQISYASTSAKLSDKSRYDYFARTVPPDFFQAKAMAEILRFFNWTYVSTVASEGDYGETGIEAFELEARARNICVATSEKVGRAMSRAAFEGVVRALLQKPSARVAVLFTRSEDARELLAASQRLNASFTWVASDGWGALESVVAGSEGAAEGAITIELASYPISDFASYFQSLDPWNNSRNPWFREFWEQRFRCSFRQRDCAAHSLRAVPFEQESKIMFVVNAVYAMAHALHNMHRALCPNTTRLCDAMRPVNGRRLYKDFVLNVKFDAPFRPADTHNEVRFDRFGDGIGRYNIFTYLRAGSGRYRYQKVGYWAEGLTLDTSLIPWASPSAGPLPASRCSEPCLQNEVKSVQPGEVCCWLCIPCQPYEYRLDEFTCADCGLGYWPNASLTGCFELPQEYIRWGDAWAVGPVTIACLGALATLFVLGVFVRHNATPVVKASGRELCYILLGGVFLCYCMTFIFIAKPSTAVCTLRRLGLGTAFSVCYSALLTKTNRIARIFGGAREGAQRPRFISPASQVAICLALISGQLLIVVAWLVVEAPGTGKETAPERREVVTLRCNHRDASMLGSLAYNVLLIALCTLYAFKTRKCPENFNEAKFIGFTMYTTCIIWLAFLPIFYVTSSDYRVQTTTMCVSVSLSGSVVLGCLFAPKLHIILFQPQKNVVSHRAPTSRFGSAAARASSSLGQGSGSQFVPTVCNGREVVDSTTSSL
Compound,EC50 (human mGluR2 receptor) [M],Emax (human mGluR2 receptor) [%],GTPγS - hmGluR2 PAM Emax (human mGluR2 receptor) [%],melting point [°C]
"FC(F)(F)c1c(CN2CCOC[C@@H]2c2ccccc2)ccn2c(CC3CC3)nnc12 [Compound 2, 3-(Cyclopropylmethyl)-7-[[(3S)-3-phenyl-4-morpholinyl]methyl]-8-(trifluoromethyl)-1,2,4-triazolo[4,3-c]pyridine]",4.27e-07,136,,
"CC1(c2ccc(F)cc2F)COCCN1Cc1ccn2c(CC3CC3)nnc2c1C(F)(F)F (single isomer, unassigned) [Compound 5b, 3-(Cyclopropylmethyl)-7-{[(3*S)-3-(2,4-difluorophenyl)-3-methylmorpholin-4-yl]methyl}-8-(trifluoromethyl)[1,2,4]triazolo[4,3-a]pyridine]",1.38e-07,,126,
"FC(F)(F)c1c(CN2CCOC[C@H]2c2ccccc2)ccn2c(CC3CC3)nnc12 [Compound 1, 3-(Cyclopropylmethyl)-7-[[(3R)-3-phenyl-4-morpholinyl]methyl]-8-(trifluoromethyl)-1,2,4-triazolo[4,3-c]pyridine]",1.7e-07,238,,69.2
"CC1(c2ccccc2F)COCCN1Cc1ccn2c(CC3CC3)nnc2c1C(F)(F)F (single isomer, unassigned) [Compound 4a, 3-(Cyclopropylmethyl)-7-{[(3*R)-3-(2-fluorophenyl)-3-methylmorpholin-4-yl]methyl}-8-(trifluoromethyl)[1,2,4]triazolo[4,3-a]pyridine]",1.82e-07,,108,
"CC1(c2ccccc2F)COCCN1Cc1ccn2c(CC3CC3)nnc2c1C(F)(F)F (single isomer, unassigned) [Compound 4b, 3-(Cyclopropylmethyl)-7-{[(3*S)-3-(2-fluorophenyl)-3-methylmorpholin-4-yl]methyl}-8-(trifluoromethyl)[1,2,4]triazolo[4,3-a]pyridine]",1.95e-07,,52,
"CC1(c2ccc(F)cc2F)COCCN1Cc1ccn2c(CC3CC3)nnc2c1C(F)(F)F (single isomer, unassigned) [Compound 5a, 3-(Cyclopropylmethyl)-7-{[(3*R)-3-(2,4-difluorophenyl)-3-methylmorpholin-4-yl]methyl}-8-(trifluoromethyl)[1,2,4]triazolo[4,3-a]pyridine]",2e-07,,101,
